Assay results published in patent US20130183719A1, “METHOD FOR PRODUCING VIRUS VECTOR” (priority 2010, published 2013).

Key:
retrovirus vector = test: RNA copy number in retrovirus supernatant (Retrovirus Titer Set, real time PCR); details: Example 9; FIG. 9
Description: (§1) A working cell bank (WCB) prepared from the cloned cell obtained in Example 7-1 was thawed in a water bath at 37° C. The cell solution thus thawed was put into a 15 mL centrifuging tube. After addition of a complete medium [a DMEM medium (manufactured by Gibco) containing 10% fetal bovine serum (10% FBS, manufactured by SAFC Biosciences)], the tube was subjected to centrifugation (500×g, 5 minutes, 20° C.). After the centrifugation, a supernatant was removed, and the cells were suspended in 10 mL of the complete medium and then counted. After cell counting, the cell suspension was adjusted with the complete medium to 78.5×10^4 cells/mL. To a 100 mm dish for cell culture (manufactured by IWAKI) were added 1 mL of the cell suspension and 14.7 mL of the complete medium. The cell culture was carried out in a CO2 incubator (37° C., 95% of humidity, 5% CO2). The cell was subcultured at intervals of 3 days. […]
The RNA copy number was determined using Retrovirus Titer Set (for Real Time PCR) (manufactured by TAKARA BIO INC.) according to a standard method described in the directions for use attached to the product.
The retrovirus producer cell as described in Example 7-1 was used to prepare virus supernatants. […] However, virus supernatants collected over 3 days were mixed and evaluated in this Example, whereas virus supernatants were collected over 4 days in Example 2-1.

PBMC = test: Gene transduction of PBMC with MS-MA24-siTCR retrovirus supernatants from producer cells cultured in the test media (CD8/MAGE-A4 tetramer flow cytometry); format: cell-based, human; details: Example 9; FIG. 8
Text: A HEK 293 T cell (ATCC CRL-11268) was transfected with the codon modified TCR and siRNA-coexpression retroviral vector (MS-MA24-siTCR) described in WO 2008/153029 using Retrovirus Packaging Kit Eco (manufactured by TAKARA BIO INC.) according to the manufacturer's protocol to obtain an ecotropic retrovirus supernatant. The virus supernatant was filtered with a 0.45 μm filter (Milex HV, manufactured by Millipore). A PG13 cell was infected with the filtrate by a method using polybrene, and then cloned by a limiting dilution method.
as §1, with “CO2).” for “CO2). The cell was subcultured at intervals of 3 days.”

Q: Which “RNA copy number, TSA 500 nM compared with 50 nM” value (retrovirus vector) does the source give for `CC(/C=C/C(=O)NO)=C\[C@@H](C)C(=O)c1ccc(N(C)C)cc1` [TSA, trichostatin A] here?
A: Its value is “more effective”.

Q: What about the “gene transduction efficiency, TSA 500 nM compared with 50 nM” value (PBMC) of the same molecule?
A: Its value is “more effective”.
